Converted amounts (≈) assume the structure as drawn. Where two headings read alike, the source gives them in different places.
How the values were obtained:
[1] = Hepatocyte Stability Assay, human; format: in vitro ADME; conditions: cryopreserved hepatocytes in suspension; human hepatocytes; read-out: Human hepatocyte clearance
[2] = Solubility Determination Assay in PBS pH 1.6 and pH 7.4; format: physicochemical; conditions: PBS buffer, aqueous buffer, kinetic from dmso stock
How it was run: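 Compounds from 10 mM DMSO stock diluted into PBS pH 1.6 or pH 7.4 (15 μL into 485 μL), stirred 2 hours, then filtered. Filtrate quantified by LC-MS/MS against a standard of known concentration with internal standard; single determination.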

[3] = PBS pH 1.6, 25° C., read-out: Aq. Solubility at pH = 1.6
[4] = PBS pH 7.4, 25° C., read-out: Aq. Solubility at pH = 7.4

| SMILES | CLint scaled at 1 μM [1] [L/h/kg] | solubility at 2 h [2, 3] [µM] | solubility at 2 h [2, 4] [µM] |
| --- | --- | --- | --- |
| O=c1c2cc(-c3ccc(C4CC4)nc3)nc(-c3cccnc3)c2ncn1C[C@H](O)C(F)(F)F [Compound 120, (S)-6-(6-cyclopropylpyridin-3-yl)-8-(pyridin-3-yl)-3-(3,3,3-trifluoro-2-hydroxypropyl)pyrido[3,4-d]pyrimidin-4(3H)-one] | < 1.2 | ≥ 1 | ≥ 1 |
| O=c1c2cc(-c3ccc(C(F)(F)F)nc3)nc(-c3cccnc3)c2ncn1C[C@@H](O)C(F)(F)F [Compound 122, (R)-8-(pyridin-3-yl)-3-(3,3,3-trifluoro-2-hydroxypropyl)-6-(6-(trifluoromethyl)pyridin-3-yl)pyrido[3,4-d]pyrimidin-4(3H)-one] | < 1.2 | ≥ 1 | ≥ 1 |
| O=c1c2cc(-c3ccc(OC(F)(F)F)cc3)nc(-c3cccnc3)c2ncn1C[C@H](O)C(F)(F)F [Compound 124, (S)-8-(pyridin-3-yl)-3-(3,3,3-trifluoro-2-hydroxypropyl)-6-(4-(trifluoromethoxy)phenyl)pyrido[3,4-d]pyrimidin-4(3H)-one] | < 1.2 | ≥ 1 | < 0.1 |
| O=c1c2cc(-c3ccc(Cl)cc3)nc(-c3cccnc3)c2ncn1[C@H]1COC[C@@H]1O [Compound 125, 6-(4-chlorophenyl)-3-((3S,4R)-4-hydroxytetrahydrofuran-3-yl)-8-(pyridin-3-yl)pyrido[3,4-d]pyrimidin-4(3H)-one] | < 1.2 | ≥ 1 | ≥ 1 |
| O=c1c2cc(-c3ccc(C(F)(F)F)nc3)nc(-c3cccnc3)c2ncn1[C@H]1COC[C@H]1O [Compound 126, 3-((3S,4S)-4-hydroxytetrahydrofuran-3-yl)-8-(pyridin-3-yl)-6-(6-(trifluoromethyl)pyridin-3-yl)pyrido[3,4-d]pyrimidin-4(3H)-one] | < 1.2 | ≥ 1 | ≥ 1 |
| Cn1cc(-c2nc(-c3ccc(C4CC4)nc3)cc3c(=O)n(C[C@H](O)C(F)(F)F)cnc23)cn1 [Compound 136, (S)-6-(6-cyclopropylpyridin-3-yl)-8-(1-methyl-1H-pyrazol-4-yl)-3-(3,3,3-trifluoro-2-hydroxypropyl)pyrido[3,4-d]pyrimidin-4(3H)-one] | < 1.2 | ≥ 1 | 0.1 to 1 (≈ 0.0456 to 0.456 µg/mL) |
| O=c1c2cc(-c3ccc(C(F)(F)F)cn3)nc(-c3cccnc3)c2ncn1[C@H]1COC[C@@H]1O [Compound 139, 3-((3S,4R)-4-hydroxytetrahydrofuran-3-yl)-8-(pyridin-3-yl)-6-(5-(trifluoromethyl)pyridin-2-yl)pyrido[3,4-d]pyrimidin-4(3H)-one] | < 1.2 | ≥ 1 | ≥ 1 |
| O=c1c2cc(-c3ccc(C(F)(F)F)cn3)nc(-c3cccnc3)c2ncn1[C@@H]1COC[C@H]1O [Compound 140, 3-((3R,4S)-4-hydroxytetrahydrofuran-3-yl)-8-(pyridin-3-yl)-6-(5-(trifluoromethyl)pyridin-2-yl)pyrido[3,4-d]pyrimidin-4(3H)-one] | < 1.2 | ≥ 1 | ≥ 1 |
| C[C@H](O)Cn1cnc2c(-c3cnn(C)c3)nc(-c3ccc(C(F)(F)F)cn3)cc2c1=O [Compound 142, (S)-3-(2-hydroxypropyl)-8-(1-methyl-1H-pyrazol-4-yl)-6-(5-(trifluoromethyl)pyridin-2-yl)pyrido[3,4-d]pyrimidin-4(3H)-one] | < 1.2 | 0.1 to 1 (≈ 0.043 to 0.43 µg/mL) | 0.1 to 1 (≈ 0.043 to 0.43 µg/mL) |
| C[C@H](O)Cn1cnc2c(-c3cccnc3)nc(-c3ccc(C(F)(F)F)cn3)cc2c1=O [Compound 143, (S)-3-(2-hydroxypropyl)-8-(pyridin-3-yl)-6-(5-(trifluoromethyl)pyridin-2-yl)pyrido[3,4-d]pyrimidin-4(3H)-one] | < 1.2 | ≥ 1 | ≥ 1 |
| C[C@@H](O)Cn1cnc2c(-c3cccnc3)nc(-c3ccc(C(F)(F)F)cn3)cc2c1=O [Compound 144, (R)-3-(2-hydroxypropyl)-8-(pyridin-3-yl)-6-(5-(trifluoromethyl)pyridin-2-yl)pyrido[3,4-d]pyrimidin-4(3H)-one] | < 1.2 | ≥ 1 | ≥ 1 |
| O=c1c2cc(-c3ccc(C(F)(F)F)cn3)nc(-c3cccnc3)c2ncn1[C@H]1COC[C@H]1O [Compound 145, 3-((3S,4S)-4-hydroxytetrahydrofuran-3-yl)-8-(pyridin-3-yl)-6-(5-(trifluoromethyl)pyridin-2-yl)pyrido[3,4-d]pyrimidin-4(3H)-one] | < 1.2 | ≥ 1 | 0.1 to 1 (≈ 0.0455 to 0.455 µg/mL) |
| Cn1cc(-c2nc(-c3ccc(C(F)(F)F)cn3)cc3c(=O)n([C@H]4COC[C@H]4O)cnc23)cn1 [Compound 151, 3-((3S,4S)-4-hydroxytetrahydrofuran-3-yl)-8-(1-methyl-1H-pyrazol-4-yl)-6-(5-(trifluoromethyl)pyridin-2-yl)pyrido[3,4-d]pyrimidin-4(3H)-one] | < 1.2 | 0.1 to 1 (≈ 0.0458 to 0.458 µg/mL) | 0.1 to 1 (≈ 0.0458 to 0.458 µg/mL) |
| O=c1c2cc(-c3ccc(Cl)cc3)nc(-c3cccnc3)c2ncn1[C@@H]1COC[C@H]1O [Compound 152, 6-(4-chlorophenyl)-3-((3R,4S)-4-hydroxytetrahydrofuran-3-yl)-8-(pyridin-3-yl)pyrido[3,4-d]pyrimidin-4(3H)-one] | 1.2 to 3 | ≥ 1 | ≥ 1 |
| O=c1c2cc(-c3ccc(C(F)(F)F)cn3)nc(-c3cccnc3)c2ncn1C[C@@H](O)C(F)(F)F [Compound 154, (R)-8-(pyridin-3-yl)-3-(3,3,3-trifluoro-2-hydroxypropyl)-6-(5-(trifluoromethyl)pyridin-2-yl)pyrido[3,4-d]pyrimidin-4(3H)-one] | < 1.2 | ≥ 1 | ≥ 1 |
| CNC(=O)[C@H](C)n1cnc2c(-c3cccnc3)nc(-c3ccc(C(F)(F)F)nc3)cc2c1=O [Compound 156, (S)—N-methyl-2-(4-oxo-8-(pyridin-3-yl)-6-(6-(trifluoromethyl)pyridin-3-yl)pyrido[3,4-d]pyrimidin-3(4H)-yl)propanamide] | < 1.2 | ≥ 1 | ≥ 1 |
| CC(C)(O)Cn1cnc2c(-n3ccnc3)nc(-c3ccc(C(F)(F)F)cn3)cc2c1=O [Compound 160, 3-(2-hydroxy-2-methylpropyl)-8-(1H-imidazol-1-yl)-6-(5-(trifluoromethyl)pyridin-2-yl)pyrido[3,4-d]pyrimidin-4(3H)-one] | < 1.2 | ≥ 1 | ≥ 1 |
| C[C@@H](CO)n1cnc2c(-n3ccnc3)nc(-c3ccc(C(F)(F)F)cn3)cc2c1=O [Compound 162, (S)-3-(1-hydroxypropan-2-yl)-8-(1H-imidazol-1-yl)-6-(5-(trifluoromethyl)pyridin-2-yl)pyrido[3,4-d]pyrimidin-4(3H)-one] | < 1.2 | ≥ 1 | ≥ 1 |
| C[C@@H](CO)n1cnc2c(-n3ccnc3)nc(-c3ccc(C(F)(F)F)nc3)cc2c1=O [Compound 163, (S)-3-(1-hydroxypropan-2-yl)-8-(1H-imidazol-1-yl)-6-(6-(trifluoromethyl)pyridin-3-yl)pyrido[3,4-d]pyrimidin-4(3H)-one] | < 1.2 | ≥ 1 | ≥ 1 |
| C[C@@H](CO)n1cnc2c(N3CCCCC3)nc(-c3ccc(Cl)cc3)cc2c1=O [Compound 177, (S)-6-(4-chlorophenyl)-3-(1-hydroxypropan-2-yl)-8-(piperidin-1-yl)pyrido[3,4-d]pyrimidin-4(3H)-one] | 1.2 to 3 | ≥ 1 | 0.1 to 1 (≈ 0.0399 to 0.399 µg/mL) |
| Cc1nc(-c2cc3c(=O)n([C@@H](C)CO)cnc3c(-c3cccnc3)n2)cs1 [Compound 183, (S)-3-(1-hydroxypropan-2-yl)-6-(2-methylthiazol-4-yl)-8-(pyridin-3-yl)pyrido[3,4-d]pyrimidin-4(3H)-one] | < 1.2 | ≥ 1 | ≥ 1 |

Reference: patent US20230295152A1 (SENDA BIOSCIENCES, INC., priority 2019, published 2023)
